# Laboratory results: US7157083B2, “Compositions and methods for treating retroviral infections” (priority 1998, dated 2007)
# Tested on: IIIB (HIV IIIB virus)
# Assay: Study 4 sensitization, Turpin and standard macrophages: RT activity after IIIB challenge
# Format: cell-based
# Method: Percent virus control (% VC) in the following tables is the mean RT activity (cpm) as a percentage of a virus control. Percent cell control (% CC) is the mean XTT absorbance as a percentage of a cell control.
# Reverse transcriptase (RT) activity was measured in cell-free supernatants. Tritiated thymidine triphosphate (NEN) (TTP) was resuspended in distilled H2O at […]. Poly rA and oligo dT were prepared as a stock solution which was kept at −20° C. The RT reaction buffer was prepared fresh on a daily basis and consists of 125 μL 1.0 M EGTA, 125 μL d H2O, 110 μL 10% SDS, 50 μL 1.0 M Tris (pH 7.4), 50 μL 1.0 M DTT, and 40μ1.0 M MgCl2. These three solutions were mixed together in a ratio of 2 parts TTP, 1 part poly rA:oligo dT, and 1 part reaction buffer. Ten microliters of this reaction mixture was placed in a round bottom microtiter plate and 15 μL of virus containing supernatant was added and mixed. The plate was incubated at 37° C. in a water bath with a solid support to prevent submersion of the plate and incubated for 60 minutes. Following reaction, the reaction volume was spotted onto pieces of DE81 paper, washed 5 times for 5 minutes each in a 5% sodium phosphate buffer, 2 times for 1 minute each in distilled water, 2 times for 1 minute each in 70% ethanol, and then dried. Opti-Fluor O was added to each sample and incorporated radioactivity was quantitated utilizing a Wallace 1450 Microbetaplus liquid scintillation counter.
# The macrophage plates were then washed with HBSS multiple times. Fresh mixed pha blast PBMCs (5×10e4/well) were placed on the macrophage cells, allowed to incubate for 72 hours and then harvested and reset in a fresh 96 well plate. The PBMCs were then challenged overnight with the respective virus (IIIB or Rojo) at a standard MOI for that virus. The PBMCs were 5× in plate spin washed with DPBS, incubated 24 hours, at which time 5×10e4 fresh pha blast PBMCs/well were added. The culture was incubated an additional 6 days and then assayed for RT activity.
# Where viability corrections were conducted, they were performed by dividing the RT CPM value by the toxicity absorbance in order to compensate for well to well variations noted in the cell titer toxicity noted.
substance,measurement,setting,value
Hyaluronidase,RT activity % VC,"0.195313 μg/mL, GP120IIIB Sensitized, Turpin",108.1%
same,RT activity % VC,"0.195313 μg/mL, IIIB Sensitized, Standard",178.1%
same,RT activity % VC,"0.195313 μg/mL, IIIB Sensitized, Turpin",95.8%
same,RT activity % VC,"0.390625 μg/mL, GP120IIIB Sensitized, Standard",87.7%
same,RT activity % VC,"0.390625 μg/mL, GP120IIIB Sensitized, Turpin",83.5%
same,RT activity % VC,"0.390625 μg/mL, IIIB Sensitized, Standard",181.3%
same,RT activity % VC,"0.78125 μg/mL, GP120IIIB Sensitized, Standard",94.5%
same,RT activity % VC,"0.78125 μg/mL, GP120IIIB Sensitized, Turpin",105.6%
same,RT activity % VC,"0.78125 μg/mL, IIIB Sensitized, Standard",129.9%
same,RT activity % VC,"0.78125 μg/mL, IIIB Sensitized, Turpin",100.0%
same,RT activity % VC,"1.5625 μg/mL, GP120IIIB Sensitized, Standard",100.7%
same,RT activity % VC,"1.5625 μg/mL, GP120IIIB Sensitized, Turpin",58.0%
same,RT activity % VC,"1.5625 μg/mL, IIIB Sensitized, Standard",203.0%
same,RT activity % VC,"1.5625 μg/mL, IIIB Sensitized, Turpin",68.3%
same,RT activity % VC,"3.125 μg/mL, GP120IIIB Sensitized, Standard",82.3%
same,RT activity % VC,"3.125 μg/mL, GP120IIIB Sensitized, Turpin",71.2%
same,RT activity % VC,"3.125 μg/mL, IIIB Sensitized, Standard",120.8%
same,RT activity % VC,"6.25 μg/mL, GP120IIIB Sensitized, Standard",106.5%
same,RT activity % VC,"6.25 μg/mL, GP120IIIB Sensitized, Turpin",72.2%
same,RT activity % VC,"6.25 μg/mL, IIIB Sensitized, Standard",234.4%
same,RT activity % VC,"6.25 μg/mL, IIIB Sensitized, Turpin",70.0%
same,RT activity % VC,"25 μg/mL, GP120IIIB Sensitized, Standard",70.6%
same,RT activity % VC,"25 μg/mL, GP120IIIB Sensitized, Turpin",52.1%
same,RT activity % VC,"25 μg/mL, IIIB Sensitized, Standard",99.8%
same,RT activity % VC,"25 μg/mL, IIIB Sensitized, Turpin",23.6%
same,RT activity % VC,"viability corrected, 0.097656 μg/mL, GP120IIIB Sensitized, Standard",105.6%
same,RT activity % VC,"viability corrected, 0.097656 μg/mL, GP120IIIB Sensitized, Turpin",116.0%
same,RT activity % VC,"viability corrected, 0.097656 μg/mL, IIIB Sensitized, Standard",103.7%
same,RT activity % VC,"viability corrected, 0.097656 μg/mL, IIIB Sensitized, Turpin",95.3%
same,RT activity % VC,"viability corrected, 0.195313 μg/mL, GP120IIIB Sensitized, Standard",83.8%
same,RT activity % VC,"viability corrected, 0.195313 μg/mL, GP120IIIB Sensitized, Turpin",111.2%
same,RT activity % VC,"viability corrected, 0.195313 μg/mL, IIIB Sensitized, Standard",141.1%
same,RT activity % VC,"viability corrected, 0.195313 μg/mL, IIIB Sensitized, Turpin",110.9%
same,RT activity % VC,"viability corrected, 0.390625 μg/mL, GP120IIIB Sensitized, Standard",74.2%
same,RT activity % VC,"viability corrected, 0.390625 μg/mL, GP120IIIB Sensitized, Turpin",122.4%
same,RT activity % VC,"viability corrected, 0.390625 μg/mL, IIIB Sensitized, Standard",177.8%
same,RT activity % VC,"viability corrected, 0.390625 μg/mL, IIIB Sensitized, Turpin",98.3%
same,RT activity % VC,"viability corrected, 0.78125 μg/mL, GP120IIIB Sensitized, Standard",100.5%
same,RT activity % VC,"viability corrected, 0.78125 μg/mL, GP120IIIB Sensitized, Turpin",115.4%
same,RT activity % VC,"viability corrected, 0.78125 μg/mL, IIIB Sensitized, Standard",117.6%
same,RT activity % VC,"viability corrected, 0.78125 μg/mL, IIIB Sensitized, Turpin",95.5%
same,RT activity % VC,"viability corrected, 1.5625 μg/mL, GP120IIIB Sensitized, Standard",97.2%
same,RT activity % VC,"viability corrected, 1.5625 μg/mL, GP120IIIB Sensitized, Turpin",74.4%
same,RT activity % VC,"viability corrected, 1.5625 μg/mL, IIIB Sensitized, Standard",189.1%
same,RT activity % VC,"viability corrected, 1.5625 μg/mL, IIIB Sensitized, Turpin",79.6%
same,RT activity % VC,"viability corrected, 3.125 μg/mL, GP120IIIB Sensitized, Standard",76.1%
same,RT activity % VC,"viability corrected, 3.125 μg/mL, GP120IIIB Sensitized, Turpin",79.0%
same,RT activity % VC,"viability corrected, 3.125 μg/mL, IIIB Sensitized, Standard",115.2%
same,RT activity % VC,"viability corrected, 3.125 μg/mL, IIIB Sensitized, Turpin",106.2%
same,RT activity % VC,"viability corrected, 6.25 μg/mL, GP120IIIB Sensitized, Standard",95.2%
same,RT activity % VC,"viability corrected, 6.25 μg/mL, GP120IIIB Sensitized, Turpin",96.0%
same,RT activity % VC,"viability corrected, 6.25 μg/mL, IIIB Sensitized, Standard",181.7%
same,RT activity % VC,"viability corrected, 6.25 μg/mL, IIIB Sensitized, Turpin",63.4%
same,RT activity % VC,"viability corrected, 25 μg/mL, GP120IIIB Sensitized, Standard",81.6%
same,RT activity % VC,"viability corrected, 25 μg/mL, GP120IIIB Sensitized, Turpin",54.1%
same,RT activity % VC,"viability corrected, 25 μg/mL, IIIB Sensitized, Standard",124.6%
same,RT activity % VC,"viability corrected, 25 μg/mL, IIIB Sensitized, Turpin",26.6%
